Reference: US10413505B1, “Pharmaceutical compositions and methods of using the same” (priority 2017, dated 2019)

Key:
[1] = Example 2 urinary pharmacokinetics, normal renal function vs severe renal impairment; conditions: single intranasal 160 mg cocaine HCl; for 0 to 32 hour urinary recovery (geometric mean) / 0 to 32 hour urinary recovery (mean) / 0 to 32 hour urinary recovery (median): metabolites as cocaine equivalents
Experimental: For the urine analysis of cocaine, BE, and EME, individual urinary recoveries for each analyte were determined over each collection interval as the product of the urine concentration times the urine volume. The total recoveries were determined as the sum of the recoveries over all the intervals. Total urinary recoveries were also expressed as the percentage of the administered dose, after correction for the molecular weight of each analyte. The renal clearances of cocaine, BE, and EME were determined as the urinary recovery (in μg) divided by the plasma AUC over the same time interval (the longest period for which both plasma and urine measurements were available).
Urine was collected prior to dosing and from 0-2, 2-4, 4-8, 8-12, 12-24, and 24-32 hours after the beginning of dose application. […] Testing methods used were consistent with those used by inVentiv Health Clinical Lab, Inc., Miami, Fla., U.S.A. Urinary pharmacokinetic parameters included total urinary recovery (μg), urinary recovery as a percentage of dose, and CLr.

[2] = Benzoylecgonine solubility in water; type: physicochemical; conditions: deionized water vehicle
Experimental: Deionized water was chosen as the vehicle for this study to avoid any vehicle-related local toxicity. Benzoylecgonine is soluble in water up to approximately 40 mg/mL.

[3] = Example 1 single-dose plasma pharmacokinetics after intranasal administration; type: in vivo, human; conditions: healthy subjects; single intranasal 160 mg cocaine HCl; plasma, >12 h after dosing
Experimental: Single-dose plasma and urinary pharmacokinetics of the pharmaceutical composition following intranasal administration was characterized in this study. This was a single-dose study in 30 healthy volunteers. The objective of the study was to examine the systemic pharmacokinetics of the pharmaceutical composition following acute, topical intranasal administration.
A single dose of a pharmaceutical composition was administered to both nostrils using cottonoid pledgets. […] Each pledget absorbed approximately 1 mL of pharmaceutical composition (i.e., 40 mg cocaine hydrochloride). Two soaked pledgets were placed into each nasal cavity of the subject and against the anterior septum for 20 minutes; thus, a total dose of 160 mg of cocaine hydrochloride was administered.
Blood samples were collected pre-dose (30 minutes before pledget insertion), and 7.5, 15, 20, 30, 45, 60, 75, 90, and 105 minutes and 2, 3, 4, 6, 8, 10, and 12 hours from the start of application of the pharmaceutical composition.
The effect of gender on Cmax, Tmax, AUClast, AUCinf, and t1/2 was determined. The effects of age, body weight, and BMI on AUClast were determined.

[4] = Example 3 urinary pharmacokinetics, normal hepatic function vs hepatic impairment; type: in vivo, human; conditions: for Urine Recovery as % of Dose, Geomean / Urine Recovery as % of Dose, Mean: 0-32 h, single intranasal dose; for CLr Geomean / CLr Mean: Table 26
Experimental: Urine was collected prior to dosing and from 0-2, 2-4, 4-8, 8-12, 12-24, and 24-32 hours after beginning of dose application. […] Urinary pharmacokinetic parameters included total urinary recovery (μg), urinary recovery as a percentage of dose, and CLr.

[5] = normal renal function, listed as Benzoylecgonine
[6] = severe renal impairment, listed as Benzoylecgonine
[7] = normal hepatic function, single intranasal 160 mg cocaine HCl
[8] = subjects with hepatic impairment
[9] = subjects with hepatic impairment, 32 hours post administration
[10] = subjects with hepatic impairment, Table 30
[11] = subjects with normal hepatic function
[12] = subjects with normal hepatic function, Table 29

In the case of CN1[C@H]2CC[C@@H]1[C@@H](C(=O)O)[C@@H](OC(=O)c1ccccc1)C2 [BE, benzoylecgonine], the “0-32 h Urinary Recovery (geometric mean)” value ([1]; normal renal function) is reported as 2106 µg, the “0-32 h Urinary Recovery (mean)” value ([1]; normal renal function) is reported as 2764 µg and the “0-32 h Urinary Recovery (median)” value ([1]; normal renal function) is reported as 1483 µg. For the same molecule, the “Renal Clearance, CLr (geometric mean)” value ([1]; normal renal function) was 3.61 L/h, the “Renal Clearance, CLr (mean)” value ([1]; normal renal function) was 3.77 L/h and the “Renal Clearance, CLr (median)” value ([1]; normal renal function) was 4.01 L/h. For the same molecule, the “Renal Clearance, geometric mean” value ([1]; normal renal function) was 60.14 mL/min, the “Renal Clearance, mean” value ([1]; normal renal function) was 62.78 mL/min and the “Renal Clearance, median” value ([1]; normal renal function) was 66.86 mL/min. The “0 to 32 hour urinary recovery (geometric mean)” value ([1]; normal renal function) was 1.55 % of administered dose, the “0 to 32 hour urinary recovery (mean)” value ([1]; normal renal function) was 2.03 % of administered dose and the “0 to 32 hour urinary recovery (median)” value ([1]; normal renal function) was 1.089 % of administered dose. For the same molecule, the “0 to 32 hour urinary recovery (geometric mean)” value [1, 5] was 1.546 % of administered dose, the “0 to 32 hour urinary recovery (mean)” value [1, 5] was 2.029 % of administered dose and the “0-32 h Urinary Recovery (geometric mean)” value ([1]; severe renal impairment) was 3126 µg. For the same molecule, the “0-32 h Urinary Recovery (mean)” value ([1]; severe renal impairment) was 3738 µg, the “0-32 h Urinary Recovery (median)” value ([1]; severe renal impairment) was 2709 µg and the “Renal Clearance, CLr (geometric mean)” value ([1]; severe renal impairment) was 0.854 L/h. For the same molecule, the “Renal Clearance, CLr (mean)” value ([1]; severe renal impairment) was 0.919 L/h, the “Renal Clearance, CLr (median)” value ([1]; severe renal impairment) was 0.824 L/h and the “Renal Clearance, geometric mean” value ([1]; severe renal impairment) was 14.2 mL/min. For the same molecule, the “Renal Clearance, mean” value ([1]; severe renal impairment) was 15.3 mL/min, the “Renal Clearance, median” value ([1]; severe renal impairment) was 13.7 mL/min and the “0 to 32 hour urinary recovery (geometric mean)” value ([1]; severe renal impairment) was 2.29 % of administered dose. The “0 to 32 hour urinary recovery (mean)” value ([1]; severe renal impairment) was 2.74 % of administered dose, the “0 to 32 hour urinary recovery (median)” value ([1]; severe renal impairment) was 1.988 % of administered dose and the “0 to 32 hour urinary recovery (geometric mean)” value [1, 6] was 2.294 % of administered dose. The “0 to 32 hour urinary recovery (mean)” value [1, 6] was 2.744 % of administered dose, the solubility in water [2] was “approximately 40 mg/mL” and the “plasma level not exceeded (metabolite not detectable in plasma)” value [3] was at most 100 ng/mL. The “Urine Recovery as % of Dose, Geomean” value ([4]; Impaired hepatic function) was 2.74 % of Dose, the “Urine Recovery as % of Dose, Mean” value ([4]; Impaired hepatic function) was 3.30 % of Dose and the “CLr Geomean” value ([4]; Impaired hepatic function) was 2.59 L/h. For the same molecule, the “CLr Mean” value ([4]; Impaired hepatic function) was 2.90 L/h, the “Urine Recovery as % of Dose, Geomean” value ([4]; Normal hepatic function) was 1.42 % of Dose and the “Urine Recovery as % of Dose, Mean” value ([4]; Normal hepatic function) was 1.73 % of Dose. For the same molecule, the “CLr Geomean” value ([4]; Normal hepatic function) was 3.96 L/h, the “CLr Mean” value ([4]; Normal hepatic function) was 4.30 L/h and the “0-32 h Urinary Recovery (geometric mean)” value [4, 7] was 1928.3 µg. For the same molecule, the “0-32 h Urinary Recovery (mean)” value [4, 7] was 2359.75 µg, the “0-32 h Urinary Recovery (median)” value [4, 7] was 2098.9 µg and the “Renal Clearance, geometric mean” value [4, 8] was 43.11 mL/min. The “Renal Clearance, mean” value [4, 8] was 48.27 mL/min, the “Renal Clearance, median” value [4, 8] was 47.80 mL/min and the “0-32 h Urinary Recovery (geometric mean)” value [4, 9] was 3735.6 µg. For the same molecule, the “0-32 h Urinary Recovery (mean)” value [4, 9] was 4500 µg, the “0-32 h Urinary Recovery (median)” value [4, 9] was 3283.7 µg and the “Renal Clearance, geometric mean” value [4, 10] was 43.11 mL/min. The “Renal Clearance, mean” value [4, 10] was 48.273 mL/min, the “Renal Clearance, median” value [4, 10] was 47.8 mL/min and the “Renal Clearance, geometric mean” value [4, 11] was 65.948 mL/min. The “Renal Clearance, mean” value [4, 11] was 71.585 mL/min, the “Renal Clearance, median” value [4, 11] was 58.237 mL/min and the “Renal Clearance, geometric mean” value [4, 12] was 65.95 mL/min. For the same molecule, the “Renal Clearance, mean” value [4, 12] was 71.585 mL/min and the “Renal Clearance, median” value [4, 12] was 58.23 mL/min.
